# Experimental data taken from patent publication US10434112B2, “Use of agonists of formyl peptide receptor 2 for treating dermatological diseases” (Allergan, Inc., priority 2013, dated 2019).
# Biological target: human FPR2 receptor (Homo sapiens (Human), UniProt P25090)
# Assay: FLIPR Ca+2 response in HEK-Gα16 cells stably expressing the human FPR2 receptor
# Type: cell-based
# Set-up: FPR2 (% eff): unit not given here
# Settings: Table 4; for FPR2 (% eff): value in brackets, given mostly as fraction
# Procedure, shortened: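 HEK-Gα16 cells stably expressing human FPR2, loaded with 2 μM Fluo-4 in HBSS/20 mM HEPES for 40 min at 37° C., then washed. Ligands added in HBSS/Hepes and Ca+2 responses recorded on FLIPR in relative fluorescence units.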
# human FPR2 receptor, sequence (P25090 whole entry): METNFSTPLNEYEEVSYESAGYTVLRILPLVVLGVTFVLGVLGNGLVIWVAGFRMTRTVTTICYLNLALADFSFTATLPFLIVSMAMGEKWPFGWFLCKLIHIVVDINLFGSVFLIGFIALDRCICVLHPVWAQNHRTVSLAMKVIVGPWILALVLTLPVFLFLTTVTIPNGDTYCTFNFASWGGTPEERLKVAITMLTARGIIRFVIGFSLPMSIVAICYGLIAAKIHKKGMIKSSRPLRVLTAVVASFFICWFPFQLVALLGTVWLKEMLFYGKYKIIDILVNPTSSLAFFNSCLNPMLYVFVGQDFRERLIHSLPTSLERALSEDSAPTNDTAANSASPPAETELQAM
Structure (SMILES),FPR2 (% eff),EC50
"CC(C)C[C@H](NC(=O)Nc1ccc(Br)cc1)C(=O)NCc1nnn[nH]1 [Compound 104, (2S)-2-{[(4-bromophenyl)carbamoyl]amino}-4-methyl-N-(1H-tetrazol-5-ylmethyl)pentanamide]",0.81,
"CCOP(=O)(O)CNC(=O)[C@H](CC(C)C)NC(=O)Nc1ccc(Br)cc1 [Compound 105, ethyl hydrogen ({[(2S)-2-{[(4-bromophenyl)carbamoyl]amino}-4-methylpentanoyl]amino}methyl)phosphonate]",0.88,
"CC1(CCc2ccccc2O)NC(=O)N(NC(=O)Nc2ccc(Br)cc2F)C1=O (stereo not drawn) [Compound 106, 1-(4-bromo-2-fluorophenyl)-3-[4-[2-[2-hydroxyphenyl)ethyl]-4-methyl-2,5-dioxoimidazolidin-1-yl}urea]",0.91,
"CC1(CCc2cccc(O)c2)NC(=O)N(NC(=O)Nc2ccc(Br)cc2F)C1=O (stereo not drawn) [Compound 107, 1-(4-bromo-2-fluorophenyl)-3-{4-[2-(3-hydroxyphenyl)ethyl]-4-methyl-2,5-dioxoimidazolidin-1-yl}urea]",0.79,
"CC1(CCc2cccc(O)c2)NC(=O)N(NC(=O)Nc2ccc(Br)cc2)C1=O (stereo not drawn) [Compound 108, 1-(4-bromophenyl)-3-{4-[2-(3-hydroxyphenyl)ethyl]-4-methyl-2,5-dioxoimidazolidin-1-yl}urea]",100,2.1 nM
"CC1(CCc2ccccc2O)NC(=O)N(NC(=O)Nc2ccc(Br)cc2)C1=O (stereo not drawn) [Compound 109, 1-(4-bromophenyl)-3-{4-[2-(2-hydroxyphenyl)ethyl]-4-methyl-2,5-dioxoimidazolidin-1-yl}urea]",0.93,
"CC(C)CC(C)(NC(=O)Nc1ccc(Br)cc1)C(=O)O (stereo not drawn) [Compound 110, 2-{[(4-bromophenyl)carbamoyl]amino}-2,4-dimethylpentanoic acid]",0.98,
"CC(C)CC(C)(NC(=O)Nc1ccc(Br)cc1)C(=O)NCC(=O)O (stereo not drawn) [Compound 111, [(2-{[(4-bromophenyl)carbamoyl]amino}-2,4-dimethylpentanoyl)amino] acetic acid]",0.99,
CCC(CC)(NC(=O)Nc1ccc(Br)cc1)C(=O)NCC(=O)O [Compound 113],100,18.7 nM
"CCOP(=O)(CNC(=O)[C@@H](NC(=O)Nc1ccc(Br)cc1)[C@@H](C)CC)OCC [Compound 114, diethyl ({[(2S,3S)-2-{[(4-bromophenyl)carbamoyl]amino}-3-methylpentanoyl]amino}methyl)phosphonate]",1.0,
"CCOP(=O)(O)CNC(=O)[C@@H](NC(=O)Nc1ccc(Br)cc1)[C@@H](C)CC [Compound 115, ethyl hydrogen ({[(2S,3S)-2-{[(4-bromophenyl)carbamoyl]amino}3-methylpentanoyl]amino}methyl)phosphonate]",0.88,
"CC(C)C[C@H](NC(=O)Nc1ccc(Br)cc1)C(=O)NCc1cc(O)no1 [Compound 116, (2S)-2-{[(4-bromophenyl)carbamoyl]amino}-N-[(3-hydroxy-1,2-oxazol-5-yl)methyl]-4-methylpentanamide]",1.0,
"CCC[C@H](NC(=O)Nc1ccc(Br)cc1)C(=O)NCP(=O)(OCC)OCC [Compound 117, diethyl ({[(2S)-2-{[(4-bromophenyl)carbamoyl]amino}pentanoyl]amino}methy) phosphonate]",1.0,
"CCOP(=O)(CNC(=O)[C@H](Cc1ccccc1)NC(=O)Nc1ccc(Br)cc1)OCC [Compound 118, diethyl ({[(2S)-2-{[(4-bromophenyl)carbamoyl]amino}-3-phenylpropanoyl]amino}methyl)phosphonate]",0.93,
"CC(C)C[C@H](NC(=O)Nc1ccc(Br)cc1)C(=O)NCC(=O)N(C)C [Compound 120, (2S)-2-{[(4-bromophenyl)carbamoyl]amino}-N-[2-(dimethylamino)-2-oxoethyl]-4-methylpentanamide]",0.99,
"CC(C)C[C@H](NC(=O)Nc1ccc(I)cc1)C(=O)O [Compound 121, (2S)-2-{[(4-iodophenyl)carbamoyl]amino}-4-methylpentanoic acid]",0.93,
"CCC[C@H](NC(=O)Nc1ccc(Br)cc1)C(=O)NCP(=O)(O)OCC [Compound 123, ethyl hydrogen ({[(2S)-2-{[(4-bromophenyl)carbamoyl]amino}pentanoyl]amino}methyl) phosphonate]",0.96,
"CCC[C@H](NC(=O)Nc1ccc(Br)cc1)C(=O)NCP(=O)(OC(C)C)OC(C)C [Compound 125, dipropan-2-yl ({[(2S)-2-{[(4-bromophenyl)carbamoyl]amino}pentanoyl]amino}methyl) phosphonate]",1.0,

Structure (SMILES),FPR2 (% eff),EC50
"CCOP(=O)(O)CNC(=O)[C@H](Cc1ccccc1)NC(=O)Nc1ccc(Br)cc1 [Compound 126, ethyl hydrogen ({[(2S)-2-{[(4-bromophenyl)carbamoyl]amino}3-phenylpropanoyl]amino}methyl)phosphonate]",1.0,
"CC(C)C[C@H](NC(=O)Nc1ccc(Br)cc1)C(=O)NCS(=O)(=O)O [Compound 127, {[(2S)-2-{[(4-bromophenyl)carbamoyl]amino}4-methylpentanoyl]amino} methanesulfonic acid]",0.91,
"CSc1ccc(NC(=O)N[C@@H](CC(C)C)C(=O)O)cc1 [Compound 128, (2S)-4-methyl-2-({[4-(methylsulfanyl)phenyl]carbamoyl}amino)pentanoic acid]",0.92,
"CSc1ccc(NC(=O)N[C@@H](CC(C)C)C(=O)NCC(=O)O)cc1 [Compound 130, {[(2S)-4-methyl-2-({[4-(methylsulfanyl)phenyl]carbamoyl}amino)pentanoyl]amino}acetic acid]",1.0,3 nM
"CC(C)C[C@H](NC(=O)Nc1ccc(Br)cc1)C(=O)NCP(=O)(OC(C)C)OC(C)C [Compound 131, dipropan-2-yl({[(2S)-2-{[(4-bromophenyl)carbamoyl]amino}-4-methylpentanoyl]amino}methyl)phosphonate]",1.0,
"CC(C)C1(CO)NC(=O)N(NC(=O)Nc2ccc(Br)cc2)C1=O (stereo not drawn) [Compound 132, 1-(4-bromophenyl)-3[4-(hydroxymethyl)-2,5-dioxo-4-(propan-2-yl)imidazolidin-1-yl]urea]",0.86,
"CC(C)C1(CC(=O)NCCO)NC(=O)N(NC(=O)Nc2ccc(Br)cc2)C1=O (stereo not drawn) [Compound 133, 2-[1-{[(4-bromophenyl)carbamoyl]amino}-2,5-dioxo-4-(propan-2-yl)imidazolidin-4-yl]-N-(2-hydroxyethyl)acetamide]",1.0,
"CCOP(=O)(CNC(=O)[C@H](CC(C)C)NC(=O)Nc1ccc(C(F)(F)F)cc1)OCC [Compound 134, diethyl ({[(2S)-4-methyl-2-({[4-(trifluoromethyl)phenyl]carbamoyl}amino)pentanoyl]amino}methyl)phosphonate]",0.97,
"CCOP(=O)(O)CNC(=O)[C@H](CC(C)C)NC(=O)Nc1ccc(C(F)(F)F)cc1 [Compound 135, ethyl hydrogen ({[(2S)-4-methyl-2-({[4-(trifluoromethyl)phenyl]carbamoyl}amino)pentanoyl]amino}methyl)phosphonate]",0.91,
"CC(C)C[C@H](NC(=O)Nc1ccc(C(F)(F)F)cc1)C(=O)NCc1nnn[nH]1 [Compound 136, (2S)-4-methyl-N-(1H-tetrazol-5-ylmethyl)-2-({[4-(trifluoromethyl)phenyl]carbamoyl}amino)pentanamide]",0.96,
"CCOP(=O)(CNC(=O)[C@H](CC(C)C)NC(=O)Nc1ccc(SC)cc1)OCC [Compound 138, diethyl ({[(2S)-4-methyl-2-({[4-(methylsulfanyl)phenyl]carbamoyl}amino)pentanoyl]amino}methyl)phosphonate]",0.91,
"CC(C)C[C@H](NC(=O)Nc1ccc(C(F)(F)F)cc1)C(=O)NC(C)(C)C(=O)O [Compound 139, 2-methyl-2-{[(2S)-4-methyl-2-({[4-(trifluoromethyl)phenyl]carbamoyl}amino)pentanoyl]amino}propanoic acid]",0.92,
"CCC1(CCc2ccccc2C(=O)OC)NC(=O)N(NC(=O)Nc2ccc(Br)cc2)C1=O (stereo not drawn) [Compound 141, methyl 2-[2-(1-{[(4-bromophenyl)carbamoyl]amino}-4-ethyl-2,5-dioxoimidazolidin-4-yl)ethyl]benzoate]",0.92,
"CC(C)C1(CC(=O)NC(CO)CO)NC(=O)N(NC(=O)Nc2ccc(Br)cc2)C1=O (stereo not drawn) [Compound 142, 2-[1-{[(4-bromophenyl)carbamoyl]amino}-2,5-dioxo-4-(propan-2-yl)imidazolidin-4-yl]-N-(1,3-dihydroxypropan-2-yl)acetamide]",0.92,
"CCC1(CCc2ccccc2C(=O)O)NC(=O)N(NC(=O)Nc2ccc(Br)cc2)C1=O (stereo not drawn) [Compound 143, 2-[2-(1-{[(4-bromophenyl)carbamoyl]amino}-4-ethyl-2,5-dioxoimidazolidin-4-yl)ethyl]benzoic acid]",1.0,
"CSCC[C@H](NC(=O)Nc1ccc(Br)cc1)C(=O)NCC(=O)O [Compound 144, {[(2S)-2-{[(4-bromophenyl)carbamoyl]amino}-4-(methylsulfanyl)butanoyl]amino}acetic acid]",0.91,
"CC(C)C1(CC(=O)NCCC(=O)O)NC(=O)N(NC(=O)Nc2ccc(Br)cc2F)C1=O (stereo not drawn) [Compound 145, 3-({[1-{[(4-bromo-2-fluorophenyl)carbamoyl]amino}-2,5-dioxo-4-(propan-2-yl)imidazolidin-4-yl]acetyl}amino)propanoic acid]",1.0,
"CCC1(CCc2ccccc2C(=O)O)NC(=O)N(NC(=O)Nc2ccc(Br)cc2F)C1=O (stereo not drawn) [Compound 146, 2-[2-(1-{[(4-bromo-2-fluorophenyl)carbamoyl]amino}-4-ethyl-2,5-dioxoimidazolidin-4-yl)ethyl]benzoic acid]",1.0,
